The source of these data is PubChem BioAssay AID256 (DTP/NCI, 2004).

Values joined by “and” are separate entries in the source; they are usually repeats but may differ in a detail not shown here. Equal entries are not always repeated. Inconclusive results and toxic doses are left out.

This test concerns CD2F1 mice, L1210 leukemia ip, survival T/C. Description: NCI In Vivo Anticancer Drug Screen. Data for tumor model L1210 Leukemia (intraperitoneal) in CD2F1 (CDF1) mice. To be noted: higher = longer survival. The gist of the method: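 Compound-dosed mice with transplantable tumor versus matched vehicle controls; endpoint ratio T/C reported.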
The mark [1] stands for this setting: endpoint: mean survival time, dose: 100.0 mg/kg/injection, schedule: Q01DX009 (ip), vehicle: saline with Tween-80.
[2] abbreviates: endpoint: mean survival time, dose: 200.0 mg/kg/injection, schedule: Q01DX009 (ip), vehicle: saline with Tween-80.
The mark [3] stands for this setting: endpoint: mean survival time, dose: 50.0 mg/kg/injection, schedule: Q01DX009 (ip), vehicle: saline with Tween-80.
Where [4] appears, read: endpoint: mean survival time, dose: 100.0 mg/kg/injection, schedule: Q01DX001 (ip), vehicle: saline with Tween-80.
Where [5] appears, read: endpoint: mean survival time, dose: 200.0 mg/kg/injection, schedule: Q01DX001 (ip), vehicle: saline with Tween-80.
The mark [6] stands for this setting: endpoint: mean survival time, dose: 400.0 mg/kg/injection, schedule: Q01DX001 (ip), vehicle: saline with Tween-80.
[7] abbreviates: endpoint: mean survival time, dose: 12.5 mg/kg/injection, schedule: Q01DX009 (ip), vehicle: Klucel (hydroxypropylcellulose) (HPC).
Where [8] appears, read: endpoint: mean survival time, dose: 25.0 mg/kg/injection, schedule: Q01DX009 (ip), vehicle: Klucel (hydroxypropylcellulose) (HPC).
Setting [9] is: endpoint: mean survival time, dose: 50.0 mg/kg/injection, schedule: Q01DX009 (ip), vehicle: Klucel (hydroxypropylcellulose) (HPC).
Where [10] appears, read: endpoint: mean survival time, dose: 100.0 mg/kg/injection, schedule: Q04DX003 (ip), vehicle: saline with Tween-80.
Where [11] appears, read: endpoint: mean survival time, dose: 200.0 mg/kg/injection, schedule: Q04DX003 (ip), vehicle: saline with Tween-80.
Setting [12] is: endpoint: mean survival time, dose: 400.0 mg/kg/injection, schedule: Q04DX003 (ip), vehicle: saline with Tween-80.
The mark [13] stands for this setting: endpoint: mean survival time, dose: 100.0 mg/kg/injection, schedule: Q01DX009 (ip), vehicle: saline.
Setting [14] is: endpoint: mean survival time, dose: 200.0 mg/kg/injection, schedule: Q01DX009 (ip), vehicle: saline.
Where [15] appears, read: endpoint: mean survival time, dose: 50.0 mg/kg/injection, schedule: Q01DX009 (ip), vehicle: saline.

Take `COC(=O)[C@H]1[C@H]2C[C@@H]3c4[nH]c5cc(OC)ccc5c4CCN3C[C@H]2C[C@@H](OC(=O)/C=C/c2cc(OC)c(OC)c(OC)c2)[C@@H]1OC`: the T/C is 86 % of control (endpoint: mean survival time, dose: 0.63 mg/kg/injection, schedule: Q01DX009 (ip), vehicle: saline sonified); 96 % of control (endpoint: mean survival time, dose: 1.25 mg/kg/injection, schedule: Q01DX009 (ip), vehicle: saline sonified); 90 % of control (endpoint: mean survival time, dose: 2.5 mg/kg/injection, schedule: Q01DX009 (ip), vehicle: saline sonified); 95 % of control (endpoint: mean survival time, dose: 5.0 mg/kg/injection, schedule: Q04DX003 (ip), vehicle: saline with Tween-80); 101 % of control (endpoint: mean survival time, dose: 10.0 mg/kg/injection, schedule: Q04DX003 (ip), vehicle: saline with Tween-80); 112 % of control (endpoint: mean survival time, dose: 20.0 mg/kg/injection, schedule: Q04DX003 (ip), vehicle: saline with Tween-80).
On to `Cc1cc2ncn(CC(=O)O)c2cc1C`, for which the T/C by setting is: under setting [1], 98 % of control; under setting [2], 93 % of control.
Consider `COC(=O)Nc1ccccc1OS(=O)(=O)N(C)C`, for which the T/C (endpoint: mean survival time, dose: 25.0 mg/kg/injection, schedule: Q01DX009 (ip), vehicle: saline with Tween-80) is 95 % of control; the T/C under setting [3] is 104 % of control; the T/C under setting [1] is 96 % of control and 103 % of control.
On to `CCOc1ccc(C(/C(Cl)=N/O)C(Cl)(Cl)Cl)cc1` (stereo unspecified), for which the T/C by setting is: (endpoint: mean survival time, dose: 12.5 mg/kg/injection, schedule: Q01DX009 (ip), vehicle: acetone) 94 % of control; (endpoint: mean survival time, dose: 25.0 mg/kg/injection, schedule: Q01DX009 (ip), vehicle: acetone) 103 % of control; (endpoint: mean survival time, dose: 50.0 mg/kg/injection, schedule: Q01DX009 (ip), vehicle: acetone) 108 % of control.
As for `N#CC(C#N)C(O)c1c[nH]c2ccccc12` (stereo unspecified), the T/C under setting [4] was 102 % of control, the T/C under setting [5] was 96 % of control and the T/C under setting [6] was 94 % of control.
On to `CCCCc1ccc(-n2c(C)c(COC(=O)NC)c(COC(=O)NC)c2C)cc1`, for which the T/C reads like this: (endpoint: mean survival time, dose: 1.56 mg/kg/injection, schedule: Q01DX009 (ip), vehicle: Klucel (hydroxypropylcellulose) (HPC)) 113 % of control and 112 % of control; (endpoint: mean survival time, dose: 3.12 mg/kg/injection, schedule: Q01DX009 (ip), vehicle: Klucel (hydroxypropylcellulose) (HPC)) 117 % of control and 110 % of control; (endpoint: mean survival time, dose: 6.25 mg/kg/injection, schedule: Q01DX009 (ip), vehicle: Klucel (hydroxypropylcellulose) (HPC)) 117 % of control and 110 % of control; under setting [7], 124 % of control and 103 % of control; under setting [8], 120 % of control; under setting [9], 122 % of control and 109 % of control.
Regarding `CCOC(=O)CNCC(O)C(Cl)(Cl)Cl` (stereo unspecified), the T/C under setting [10] is 102 % of control, the T/C under setting [11] was 98 % of control and the T/C under setting [12] is 96 % of control.
With `CC(C)[C@](O)(C(=O)OCC1=CCN2CC[C@@H](O)[C@@H]12)[C@H](C)O`, the T/C reads like this: (endpoint: median survival time, dose: 12.5 mg/kg/injection, schedule: Q01DX009 (ip), vehicle: water) 103 % of control; (endpoint: median survival time, dose: 25.0 mg/kg/injection, schedule: Q01DX009 (ip), vehicle: water) 100 % of control; (endpoint: median survival time, dose: 50.0 mg/kg/injection, schedule: Q01DX009 (ip), vehicle: water) 98 % of control; (endpoint: median survival time, dose: 100.0 mg/kg/injection, schedule: Q01DX009 (ip), vehicle: water) 122 % of control; (endpoint: median survival time, dose: 200.0 mg/kg/injection, schedule: Q01DX009 (ip), vehicle: water) 112 % of control; (endpoint: median survival time, dose: 400.0 mg/kg/injection, schedule: Q01DX009 (ip), vehicle: water) 112 % of control.
In the case of `CCCC/C=C\C(=O)OCC`, the T/C was 104 % of control under setting [3], 101 % of control under setting [1] and 104 % of control under setting [2].
With `CC(=O)Nc1ccccc1OC(=O)c1ccccc1`, the T/C reads like this: under setting [3], 97 % of control; under setting [1], 97 % of control; under setting [10], 101 % of control; under setting [2], 97 % of control; under setting [11], 95 % of control.
Consider `N#CCCOCCC#N`, for which the T/C under setting [13] is 100 % of control; the T/C under setting [14] was 98 % of control; the T/C (endpoint: mean survival time, dose: 400.0 mg/kg/injection, schedule: Q01DX009 (ip), vehicle: saline) was 102 % of control.
As to `c1ccc2c[n+](C[n+]3ccc4ccccc4c3)ccc2c1`, the T/C is, setting by setting: under setting [15], 96 % of control; under setting [13], 102 % of control; under setting [14], 102 % of control.
Turning to `Cc1ccc2c(c1)C(C(F)(F)F)(C(F)(F)F)OC(C(F)(F)F)(C(F)(F)F)N2`, the T/C runs as follows: under setting [4], 104 % of control; under setting [1], 95 % of control; under setting [5], 103 % of control; under setting [2], 102 % of control; under setting [6], 95 % of control.
Take `OC1CCC2CCCCC2C1` (stereo unspecified): the T/C was 107 % of control (endpoint: mean survival time, dose: 25.0 mg/kg/injection, schedule: Q04DX003 (ip), vehicle: saline); 94 % of control (endpoint: mean survival time, dose: 50.0 mg/kg/injection, schedule: Q04DX003 (ip), vehicle: saline); 102 % of control under setting [10]; 98 % of control (endpoint: mean survival time, dose: 100.0 mg/kg/injection, schedule: Q04DX003 (ip), vehicle: saline); 107 % of control under setting [11]; 101 % of control under setting [12].
In the case of `O=C1C=CC(n2cc(F)c(=O)[nH]c2=O)O1` (stereo unspecified), the T/C (endpoint: median survival time, dose: 6.25 mg/kg/injection, schedule: Q01DX009 (ip), vehicle: saline with Tween-80) is 122 % of control; the T/C (endpoint: median survival time, dose: 6.25 mg/kg/injection, schedule: Q01DX009 (ip), vehicle: saline) is 113 % of control and 115 % of control; the T/C (endpoint: median survival time, dose: 12.5 mg/kg/injection, schedule: Q01DX009 (ip), vehicle: saline) is 121 % of control; the T/C (endpoint: median survival time, dose: 25.0 mg/kg/injection, schedule: Q01DX009 (ip), vehicle: saline) is 122 % of control; the T/C (endpoint: median survival time, dose: 50.0 mg/kg/injection, schedule: Q01DX009 (ip), vehicle: saline) was 150 % of control and 162 % of control; the T/C (endpoint: median survival time, dose: 100.0 mg/kg/injection, schedule: Q01DX009 (ip), vehicle: saline with Tween-80) is 91 % of control. Also, the T/C (endpoint: median survival time, dose: 100.0 mg/kg/injection, schedule: Q01DX009 (ip), vehicle: saline) is 96 % of control and 108 % of control.
Consider `COC(=O)/C=C\C(=O)O`, for which the T/C is, setting by setting: under setting [15], 102 % of control; under setting [13], 100 % of control.
Turning to `COc1ccc(/C(C)=N\NC(=O)c2ccccc2)cc1`, the T/C is, setting by setting: under setting [3], 91 % of control; under setting [1], 94 % of control; under setting [10], 98 % of control; under setting [2], 89 % of control; under setting [11], 104 % of control.
For `CN(C)C(=O)SCCSC(=O)N(C)C`, the T/C is, setting by setting: (endpoint: mean survival time, dose: 100.0 mg/kg/injection, schedule: Q04DX002 (ip), vehicle: saline with Tween-80) 106 % of control; (endpoint: mean survival time, dose: 200.0 mg/kg/injection, schedule: Q04DX002 (ip), vehicle: saline with Tween-80) 92 % of control; (endpoint: mean survival time, dose: 400.0 mg/kg/injection, schedule: Q04DX002 (ip), vehicle: saline with Tween-80) 95 % of control.
For `CCCCn1c(C)nc2c(N)cc(C(F)(F)F)cc21`, the T/C is 100 % of control under setting [7]; 96 % of control (endpoint: mean survival time, dose: 25.0 mg/kg/injection, schedule: Q01DX001 (ip), vehicle: Klucel (hydroxypropylcellulose) (HPC)); 91 % of control under setting [8]; 96 % of control (endpoint: mean survival time, dose: 25.0 mg/kg/injection, schedule: Q04DX003 (ip), vehicle: Klucel (hydroxypropylcellulose) (HPC)); 102 % of control (endpoint: mean survival time, dose: 50.0 mg/kg/injection, schedule: Q01DX001 (ip), vehicle: Klucel (hydroxypropylcellulose) (HPC)); 100 % of control under setting [9]. For the same compound, the T/C by setting is: (endpoint: mean survival time, dose: 50.0 mg/kg/injection, schedule: Q04DX003 (ip), vehicle: Klucel (hydroxypropylcellulose) (HPC)) 100 % of control; (endpoint: mean survival time, dose: 100.0 mg/kg/injection, schedule: Q01DX001 (ip), vehicle: Klucel (hydroxypropylcellulose) (HPC)) 97 % of control; (endpoint: mean survival time, dose: 100.0 mg/kg/injection, schedule: Q01DX009 (ip), vehicle: Klucel (hydroxypropylcellulose) (HPC)) 102 % of control; (endpoint: mean survival time, dose: 100.0 mg/kg/injection, schedule: Q04DX003 (ip), vehicle: Klucel (hydroxypropylcellulose) (HPC)) 93 % of control; (endpoint: mean survival time, dose: 200.0 mg/kg/injection, schedule: Q01DX001 (ip), vehicle: Klucel (hydroxypropylcellulose) (HPC)) 94 % of control; (endpoint: mean survival time, dose: 200.0 mg/kg/injection, schedule: Q04DX003 (ip), vehicle: Klucel (hydroxypropylcellulose) (HPC)) 100 % of control.
